Biological target: Factor IXa (Homo sapiens, UniProt P00740)
Experiment: Determination of inhibitory activity against Factor IXa (cleavage of fluorescent peptide substrate)
Format: biochemical
Conditions: cleavage of fluorescent peptide CH3SO2-D-CHG-Gly-Arg-AFC, release of AFC; read-out: FIXa IC50
Method in brief: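 Factor IXa activity followed via cleavage of CH3SO2-D-CHG-Gly-Arg-AFC, releasing AFC. Fluorescence read at excitation 405 nm, emission 510 nm.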

Factor IXa, sequence (P00740 227-461 limits assumed): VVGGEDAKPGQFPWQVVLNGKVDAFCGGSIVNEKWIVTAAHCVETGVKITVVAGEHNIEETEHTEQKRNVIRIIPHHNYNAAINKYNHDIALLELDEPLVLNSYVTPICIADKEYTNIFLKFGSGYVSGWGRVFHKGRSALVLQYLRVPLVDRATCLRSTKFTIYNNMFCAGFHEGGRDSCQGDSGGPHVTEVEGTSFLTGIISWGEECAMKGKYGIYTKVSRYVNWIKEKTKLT
Factor IXa, sequence (P00740 47-191 partner limits assumed): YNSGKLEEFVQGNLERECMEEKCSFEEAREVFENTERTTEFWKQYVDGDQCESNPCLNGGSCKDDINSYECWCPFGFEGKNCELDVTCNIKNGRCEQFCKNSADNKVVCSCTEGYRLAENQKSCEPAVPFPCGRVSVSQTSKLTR

Structure (SMILES)	IC50
CC(C)Oc1cc(-n2ccc(N3CCO[C@H]([C@@](C)(O)C(=O)Nc4cc(F)c5c(N)noc5c4)C3=O)n2)cnn1 [Example 137, (R)—N-(3-amino-4-fluorobenzo[d]isoxazol-6-yl)-2-hydroxy-2-((R)-4-(1-(6-isopropoxypyridazin-4-yl)-1H-pyrazol-3-yl)-3-oxomorpholin-2-yl)propanamide]	190 nM
C[C@](O)(C(=O)Nc1cc(F)c2c(N)noc2c1)[C@H]1OCCN(c2ccn(-c3cnnc(C#N)c3)n2)C1=O [Example 138, (R)—N-(3-amino-4-fluorobenzo[d]isoxazol-6-yl)-2-((R)-4-(1-(6-cyanopyridazin-4-yl)-1H-pyrazol-3-yl)-3-oxomorpholin-2-yl)-2-hydroxypropanamide]	7.11 nM
COc1cc(-n2ccc(N3CCO[C@H]([C@@](C)(O)C(=O)Nc4cc(F)c5c(N)noc5c4)C3=O)n2)cnn1 [Example 139, (R)—N-(3-amino-4-fluorobenzo[d]isoxazol-6-yl)-2-hydroxy-2-((R)-4-(1-(6-methoxypyridazin-4-yl)-1H-pyrazol-3-yl)-3-oxomorpholin-2-yl)propanamide]	14 nM
C[C@](O)(C(=O)Nc1cc(F)c2c(N)noc2c1)[C@H]1OCCN(c2nn(-c3ccnnc3)cc2F)C1=O [Example 140, (R)—N-(3-amino-4-fluorobenzo[d]isoxazol-6-yl)-2-((R)-4-(4-fluoro-1-(pyridazin-4-yl)-1H-pyrazol-3-yl)-3-oxomorpholin-2-yl)-2-hydroxypropanamide]	5.61 nM
COc1nccc(-n2ccc(N3CCO[C@H]([C@@](C)(O)C(=O)Nc4cc(F)c5c(N)noc5c4)C3=O)n2)n1 [Example 141, (R)—N-(3-amino-4-fluorobenzo[d]isoxazol-6-yl)-2-hydroxy-2-((R)-4-(1-(2-methoxypyrimidin-4-yl)-1H-pyrazol-3-yl)-3-oxomorpholin-2-yl)propanamide]	107 nM
C[C@]1([C@@H](O)C(=O)Nc2cc(F)c3c(N)noc3c2)OCCN(c2ccn(-c3ccnnc3)n2)C1=O [Example 142, (R)—N-(3-amino-4-fluorobenzo[d]isoxazol-6-yl)-2-hydroxy-2-((R)-2-methyl-3-oxo-4-(1-(pyridazin-4-yl)-1H-pyrazol-3-yl)morpholin-2-yl)acetamide]	6.27 nM
COc1nccc(-n2ccc(N3CCO[C@](C)([C@@H](O)C(=O)Nc4cc(F)c5c(N)noc5c4)C3=O)n2)n1 [Example 143, (R)—N-(3-amino-4-fluorobenzo[d]isoxazol-6-yl)-2-hydroxy-2-((R)-4-(1-(2-methoxypyrimidin-4-yl)-1H-pyrazol-3-yl)-2-methyl-3-oxomorpholin-2-yl)acetamide]	22.1 nM
C[C@](O)(C(=O)Nc1cnc2c(N)noc2c1)[C@H]1OCCN(c2ccn(-c3ccncc3)n2)C1=O [Example 144, (R)—N-(3-aminoisoxazolo[4,5-b]pyridin-6-yl)-2-hydroxy-2-((R)-3-oxo-4-(1-(pyridin-4-yl)-1H-pyrazol-3-yl)morpholin-2-yl)propanamide]	458 nM
COc1cc(-n2ccc(N3CCO[C@H]([C@@](C)(O)C(=O)Nc4ccc5[nH]c(C)c(Cl)c5c4)C3=O)n2)ccn1 [Example 145, (R)—N-(3-chloro-2-methyl-1H-indol-5-yl)-2-hydroxy-2-((R)-4-(1-(2-methoxypyridin-4-yl)-1H-pyrazol-3-yl)-3-oxomorpholin-2-yl)propanamide]	1100 nM
Cc1[nH]c2ccc(NC(=O)[C@](C)(O)[C@H]3OCCN(c4ccn(-c5ccnnc5)n4)C3=O)cc2c1Cl [Example 146, (R)—N-(3-chloro-2-methyl-1H-indol-5-yl)-2-hydroxy-2-((R)-3-oxo-4-(1-(pyridazin-4-yl)-1H-pyrazol-3-yl)morpholin-2-yl)propanamide]	28.1 nM
C[C@](O)(C(=O)Nc1ccc2c(N)noc2c1)[C@@]1(C)OCCN(c2ccn(-c3ccnnc3)n2)C1=O [Example 148, (R)—N-(3-Aminobenzo[d]isoxazol-6-yl)-2-hydroxy-2-((R)-2-methyl-3-oxo-4-(1-(pyridazin-4-yl)-1H-pyrazol-3-yl)morpholin-2-yl)propanamide]	62.6 nM
COc1cc(-n2ccc(N3CCO[C@](C)([C@@](C)(O)C(=O)Nc4ccc5c(N)noc5c4)C3=O)n2)cnn1 [Example 149, (R)—N-(3-aminobenzo[d]isoxazol-6-yl)-2-hydroxy-2-((R)-4-(1-(6-methoxypyridazin-4-yl)-1H-pyrazol-3-yl)-2-methyl-3-oxomorpholin-2-yl)propanamide]	92.4 nM
C[C@](O)(C(=O)Nc1ccc(CN)cc1)[C@H]1OCCN(c2ccn(-c3ccncc3)n2)C1=O [Example 150, (R)—N-(4-(aminomethyl)phenyl)-2-hydroxy-2-((R)-3-oxo-4-(1-(pyridin-4-yl)-1H-pyrazol-3-yl)morpholin-2-yl)propanamide]	66.2 nM
C[C@](O)(C(=O)Nc1ccc(CN)c(F)c1)[C@H]1OCCN(c2ccn(-c3ccncc3)n2)C1=O [Example 151, (R)—N-(4-(aminomethyl)-3-fluorophenyl)-2-hydroxy-2-((R)-3-oxo-4-(1-(pyridin-4-yl)-1H-pyrazol-3-yl)morpholin-2-yl)propanamide]	70 nM
C[C@]1([C@@H](O)C(=O)Nc2ccc(CN)cc2)OCCN(c2ccn(-c3ccncc3)n2)C1=O [Example 152, (R)—N-(4-(aminomethyl)phenyl)-2-hydroxy-2-((R)-2-methyl-3-oxo-4-(1-(pyridin-4-yl)-1H-pyrazol-3-yl)morpholin-2-yl)acetamide]	9.69 nM
C[C@]1([C@@H](O)C(=O)Nc2ccc(CN)c(F)c2)OCCN(c2ccn(-c3ccncc3)n2)C1=O [Example 153, (R)—N-(4-(aminomethyl)-3-fluorophenyl)-2-hydroxy-2-((R)-2-methyl-3-oxo-4-(1-(pyridin-4-yl)-1H-pyrazol-3-yl)morpholin-2-yl)acetamide]	12.7 nM
C[C@@H]1CN(c2ccn(-c3cnnc(C#N)c3)n2)C(=O)[C@@H]([C@@H](O)C(=O)Nc2ccc3c(N)noc3c2)O1 [Example 154, (R)—N-(3-Aminobenzo[d]isoxazol-6-yl)-2-((2R,6R)-4-(1-(6-cyanopyridazin-4-yl)-1H-pyrazol-3-yl)-6-methyl-3-oxomorpholin-2-yl)-2-hydroxyacetamide]	1.98 nM
C[C@H]1CN(c2ccn(-c3cnnc(C#N)c3)n2)C(=O)[C@@H]([C@@H](O)C(=O)Nc2ccc3c(N)noc3c2)O1 [Example 155, (R)—N-(3-Aminobenzo[d]isoxazol-6-yl)-2-((2R,6S)-4-(1-(6-cyanopyridazin-4-yl)-1H-pyrazol-3-yl)-6-methyl-3-oxomorpholin-2-yl)-2-hydroxyacetamide]	1.96 nM
CC1(C)CN(c2ccn(-c3cnnc(C#N)c3)n2)C(=O)[C@@H]([C@@H](O)C(=O)Nc2ccc3c(N)noc3c2)O1 [Example 156, (R)—N-(3-Aminobenzo[d]isoxazol-6-yl)-2-((R)-4-(1-(6-cyanopyridazin-4-yl)-1H-pyrazol-3-yl)-6,6-dimethyl-3-oxomorpholin-2-yl)-2-hydroxyacetamide]	1.68 nM
C[C@@H]1CN(c2ccn(-c3ccnnc3)n2)C(=O)[C@@H]([C@@H](O)C(=O)Nc2ccc3c(N)noc3c2)O1 [Example 157, (R)—N-(3-aminobenzo[d]isoxazol-6-yl)-2-hydroxy-2-((2R,6R)-6-methyl-3-oxo-4-(1-(pyridazin-4-yl)-1H-pyrazol-3-yl)morpholin-2-yl)acetamide]	1.34 nM
C[C@@H]1CN(c2nn(-c3ccnnc3)cc2F)C(=O)[C@@H]([C@@H](O)C(=O)Nc2ccc3c(N)noc3c2)O1 [Example 158, (R)—N-(3-aminobenzo[d]isoxazol-6-yl)-2-((2R,6R)-4-(4-fluoro-1-(pyridazin-4-yl)-1H-pyrazol-3-yl)-6-methyl-3-oxomorpholin-2-yl)-2-hydroxyacetamide]	4.4 nM
COc1cc(-n2ccc(N3C[C@@H](C)O[C@H]([C@@H](O)C(=O)Nc4ccc5c(N)noc5c4)C3=O)n2)cnn1 [Example 159, (R)—N-(3-aminobenzo[d]isoxazol-6-yl)-2-hydroxy-2-((2R,6R)-4-(1-(6-methoxypyridazin-4-yl)-1H-pyrazol-3-yl)-6-methyl-3-oxomorpholin-2-yl)acetamide]	2.26 nM
C[C@H]1CN(c2ccn(-c3ccnnc3)n2)C(=O)[C@@H]([C@@H](O)C(=O)Nc2ccc3c(N)noc3c2)O1 [Example 160, (R)—N-(3-aminobenzo[d]isoxazol-6-yl)-2-hydroxy-2-((2R,6S)-6-methyl-3-oxo-4-(1-(pyridazin-4-yl)-1H-pyrazol-3-yl)morpholin-2-yl)acetamide]	2.27 nM
C[C@H]1CN(c2nn(-c3ccnnc3)cc2F)C(=O)[C@@H]([C@@H](O)C(=O)Nc2ccc3c(N)noc3c2)O1 [Example 161, (R)—N-(3-aminobenzo[d]isoxazol-6-yl)-2-((2R,6S)-4-(4-fluoro-1-(pyridazin-4-yl)-1H-pyrazol-3-yl)-6-methyl-3-oxomorpholin-2-yl)-2-hydroxyacetamide]	32.3 nM
COc1cc(-n2ccc(N3C[C@H](C)O[C@H]([C@@H](O)C(=O)Nc4ccc5c(N)noc5c4)C3=O)n2)cnn1 [Example 162, (R)—N-(3-aminobenzo[d]isoxazol-6-yl)-2-hydroxy-2-((2R,6S)-4-(1-(6-methoxypyridazin-4-yl)-1H-pyrazol-3-yl)-6-methyl-3-oxomorpholin-2-yl)acetamide]	2.61 nM
C[C@H]1CN(c2ccn(-c3ccncc3)n2)C(=O)[C@@H]([C@@H](O)C(=O)Nc2ccc3c(N)noc3c2)O1 [Example 163, (R)—N-(3-aminobenzo[d]isoxazol-6-yl)-2-hydroxy-2-((2R,6S)-6-methyl-3-oxo-4-(1-(pyridin-4-yl)-1H-pyrazol-3-yl)morpholin-2-yl)acetamide]	11.3 nM
C[C@H]1CN(c2ccn(-c3ccnc(C#N)c3)n2)C(=O)[C@@H]([C@@H](O)C(=O)Nc2ccc3c(N)noc3c2)O1 [Example 164, (R)—N-(3-aminobenzo[d]isoxazol-6-yl)-2-((2R,6S)-4-(1-(2-cyanopyridin-4-yl)-1H-pyrazol-3-yl)-6-methyl-3-oxomorpholin-2-yl)-2-hydroxyacetamide]	5.68 nM

From patent US9708308B2, “Factor IXa inhibitors” (Merck Sharp & Dohme Corp., priority 2012, dated 2017)
